Data as given in PMC11475369, “Exploring the Potential of Synthetic Cannabinoids: Modulation of Biological Activity of Normal and Cancerous Human Colon Epithelial Cells” (Cells, 2024).
Converted amounts (≈) assume the structure as drawn. “And” between values parts separate entries of the source, which are not always exact repeats. Equal entries are not always repeated.

Assays:
CCD 841 CoTr cells [1] = experiment: MTT assay, metabolic activity of CCD 841 CoTr cells; assay type: cell-based, human; details: for IC50: Homo sapiens, CCD-841, 24 h, read-out: IC50 Values (MTT method)
Description: The HT29 cell line (ATCC no. HTB-38) (human colon adenocarcinoma) was used in the present study. Cells were cultivated in RPMI 1640 culture medium with 10% fetal calf serum (FCS) (GibcoTM, Paisley, UK), supplemented with antibiotics (100 U/mL penicillin and 100 μg/mL streptomycin) (Sigma, St. Louis, MO, USA). The cell culture was performed in standard conditions, i.e., at 37 °C in a humidified atmosphere with 5% CO2. The CCD 841 CoTr cell line (ATCC no. CRL-1807) (human normal colon epithelium) was cultivated in RPMI 1640 +DMEM (1:1) medium (Sigma, St. Louis, MO, USA) with 10% FCS and the addition of antibiotics. The culture was carried out at 34 °C in a 5% CO2/95% air atmosphere.
After seeding (1 × 10^5 cells/mL) in a 96-well plate, the cells were incubated for 24 h. Thereafter, the tested compounds (100 μL) at a concentration range of 0–200 μg/mL in the culture medium were added to the wells (100 μL). The incubation lasted for 24 h. After that time, an MTT solution (5 mg/mL, 25 μL/well) was added to each well. The incubation was continued for another 3 h. After the incubation, 10% sodium dodecyl sulfate (SDS) in 0.01 M HCl (100 μL) was added in order to dissolve the purple formazan crystals. Solubilization was carried out overnight. Finally, spectrophotometric measurement was performed at 570 nm using an EL800 Universal Microplate Reader (BioTek Instruments, Winooski, VT, USA).

[2] = DPPH free radical scavenging test
Description: The DPPH biochemical test is used to determine the antioxidant potential of tested compounds. This method is based on the ability of compounds to reduce the stable dark purple 2,2-diphenyl-1-picrylhydrazyl radical (DPPH) to yellow diphenyl-picrylhydrazine. The following concentrations of the tested cannabinoids were prepared: 25, 100, and 200 μg/mL in pure ethanol. Next, the DPPH solution (0.2 mg/mL in ethanol) was prepared. As a quantitative standard, Trolox in increasing concentrations (1–50 μg/mL) was prepared in ethanol. The procedure was carried out as follows: 100 µL of the specified concentrations of the tested cannabinoids or standard points were added to the wells of a 96-well plate in eight replicates. Next, 100 μL of a DPPH solution was added to 100 μL of each sample or standard in a 96-well plate. Subsequently, 20 min. incubation at room temperature was carried out, and spectrophotometric reading was performed at 515 nm using an EL800 Universal Microplate Reader (BioTek Instruments, Winooski, VT, USA). Decreasing absorbance meant increasing antioxidant activity of the preparations. The final value of the free radical scavenging activity of the cannabinoids was calculated based on the standard curve and the following formula:DPPH scavenging effect (%) = [(Xcontrol − Xcompound/Xcontrol) × 100]
Xcontrol is the absorbance of the control, and Xcompound is the absorbance in the presence of cannabinoids

HT29 cells [3] = experiment: Nitric oxide (NOx) release in HT29 culture, Griess method; assay type: cell-based, human; details: HT29 cancer cells, 0–200 μg/mL, 24 h
Description: In this spectrophotometric method, the stable end products (nitrate and nitrite) were analyzed in the normal and tumor culture supernatants after 24 h of incubation of the cells with the cannabinoids in the concentration range of 0–200 μg/mL. The Griess reaction was applied. This method involves a 2-step reaction, whose product is a red-pink azo dye. The amount of this dye is directly proportional to the amount of NO. The cells were cultured for 24 h in 24-well plates (1 mL/well, density 1 × 10^5 cells/mL); next, after withdrawing the culture fluid, the tested cannabinoids were added to the wells at a volume of 1 mL/well and the incubation was carried out for another 24 h. After the incubation, the culture media were collected and frozen at −80 °C for no longer than 1 month. For calibration and quantitative analysis, the standard curve was prepared using 0.5–25 μM sodium nitrite (NaNO2). Thawed and centrifuged (5000 rpm/5 min.) supernatant samples and the standard were poured into a 96-well flat-bottomed plate at 100 µL/well. Each sample was analyzed in triplicate. […] Finally, the absorbance of the samples was spectrophotometrically read at 570 nm using an EL800 Universal Microplate Reader (BioTek Instruments, Winooski, VT, USA).

CCD 841 CoTr cells [4] = experiment: Nitric oxide (NOx) release in CCD 841 CoTr culture, Griess method; assay type: cell-based, human; details: CCD 841 CoTr normal cells, 0–200 μg/mL, 24 h
Description: In this spectrophotometric method, the stable end products (nitrate and nitrite) were analyzed in the normal and tumor culture supernatants after 24 h of incubation of the cells with the cannabinoids in the concentration range of 0–200 μg/mL. The Griess reaction was applied. This method involves a 2-step reaction, whose product is a red-pink azo dye. The amount of this dye is directly proportional to the amount of NO. The cells were cultured for 24 h in 24-well plates (1 mL/well, density 1 × 10^5 cells/mL); next, after withdrawing the culture fluid, the tested cannabinoids were added to the wells at a volume of 1 mL/well and the incubation was carried out for another 24 h. After the incubation, the culture media were collected and frozen at −80 °C for no longer than 1 month. For calibration and quantitative analysis, the standard curve was prepared using 0.5–25 μM sodium nitrite (NaNO2). Thawed and centrifuged (5000 rpm/5 min.) supernatant samples and the standard were poured into a 96-well flat-bottomed plate at 100 µL/well. Each sample was analyzed in triplicate. Subsequently, 100 µL/well of Griess reagent (1% sulfanilamide/0.1% N-(1-naphthyl)ethylenediamine dihydrochloride) in 3% H3PO4 was added to all wells and incubated at room temperature for 10 min. Finally, the absorbance of the samples was spectrophotometrically read at 570 nm using an EL800 Universal Microplate Reader (BioTek Instruments, Winooski, VT, USA).

HT29 cells [5] = experiment: Flow cytometry annexin V-FITC/PI, cell death types in HT29 cells; assay type: cell-based, human; details: HT29, 25 μg/mL, 24 h; for viability at 25 µg/mL: Homo sapiens, HT-29, read-out: Percentage of viable cells
Description: (§1) In a further flow cytometric study measuring normal and tumor cell death types, the cells were exposed to the cannabinoids at a concentration of 25 μg/mL for 24 h.
(§2) The annexin V-fluorescein isothiocyanate (FITC)/propidium iodide (PI) apoptosis kit (BD Biosciences, BD Pharmingen™, San Jose, CA, USA) was used for the quantitative analysis of cannabinoid-induced cell death.
(§3) For the analyses, both adhered (after detaching the cells with 10 mM EDTA in PBS w/o Ca^2+ and Mg^2+ ions solution) and floating cells were collected after 24 h of incubation with the tested cannabinoids. After collection, the cells were gently centrifuged (1000 rpm/5 min.). Next, the supernatant was discarded, and the cell pellet was suspended in warm PBS w/o Ca^2+ and Mg^2+ ions and incubated for 5 min. at room temperature. The centrifugation procedure was repeated again and, following the manufacturer’s procedure, the cells were suspended in 100 μL of 1X Annexin V Binding Buffer with 5 μL of FITC Annexin V […] and 5 μL of propidium iodide (PI) (5 mM). The preparation was gently vortexed and incubated at room temperature for 15 min. in the dark. After that time, the cells were subjected to cytometric analysis. Before dosing the cells into the cytometer, 400 μL of 1X Binding Buffer was added. The cells were analyzed using a flow cytometer (BD FACSCalibur) with CellQuest Pro Version 6.0 software within 1 h after the staining was completed.

CCD 841 CoTr cells [6] = experiment: Flow cytometry annexin V-FITC/PI, cell death types in CCD 841 CoTr cells; assay type: cell-based, human; details: 25 μg/mL, 24 h
Description: as §1, §2, §3

[7] = as above; assay type: cell-based, human; details: human, CCD 841 CoTr cells (normal cells), read-out: Percentage of viable cells
Description: as §1, §2, §3

[8] = CCD 841 CoTr colon normal cells, 24 h incubation
[9] = cannabinoid concentration 25 μg/mL
[10] = cannabinoid concentration 100 μg/mL
[11] = cannabinoid concentration 200 μg/mL

Compound | IC50 (CCD 841 CoTr cells [1]; [8]) [µg/mL] | Reduction Value Corresponding to the Trolox Concentration (DPPH) [2, 9] | Reduction Value Corresponding to the Trolox Concentration (DPPH) [2, 10] [µg/mL] | Reduction Value Corresponding to the Trolox Concentration (DPPH) [2, 11] | Effect on release of nitric oxide NOx (in words) (HT29 cells [3]) | Effect on release of nitric oxide NOx (in words) (CCD 841 CoTr cells [4]) | Percentage of cells in early apoptosis (HT29 cells [5]) [%] | Percentage of cells in late apoptosis (HT29 cells [5]) [%] | Percentage of cells in necrosis (HT29 cells [5]) [%] | Reduction in the number of viable cells compared to the control (HT29 cells [5]) [%] | viability at 25 µg/mL (HT29 cells [5]) [%] | Percentage of cells in early apoptosis (CCD 841 CoTr cells [6]) [%] | Percentage of cells in late apoptosis (CCD 841 CoTr cells [6]) [%] | Percentage of cells in necrosis (CCD 841 CoTr cells [6]) [%] | Reduction in the number of viable normal cells compared to the control (CCD 841 CoTr cells [6]) | viability at 24 h, 25 μg/mL [7] [%] | Cells in late apoptosis, more than in the control (HT29 cells [5]) [%] | Cells in necrosis, more than in the control (HT29 cells [5]) [%] | also measured
CCCCCc1cc(O)c2c(c1)OC(C)(CCC=C(C)C)C=C2 (stereo not drawn) [CBC, cannabichromene] | 75.2 (≈ 239 µM) | 0 µg/mL | 0 | 0.487 ± 0.341 µg/mL | reduction in NOx levels with increasing cannabinoid concentration | reduction in NOx levels with increasing cannabinoid concentration | 1.36 ± 0.18 | 6.84 ± 0.71 | 1.18 ± 0.39 | 7.13 | 88 ± 2.34 | 2.51 ± 0.54 | 5.58 ± 1.02 | 0.54 ± 0.39 | did not significantly affect | 91.4 ± 1.19 | – | – | IC50 Values (MTT method) (CCD 841 CoTr cells [1]; [8]): 75.29 µg/mL (≈ 239 µM); Stimulation of cell metabolism compared to the control (MTT) (CCD 841 CoTr cells [1]; CCD 841 CoTr, lowest concentration, 24 h): over 4%; Activity in reducing the free oxygen radical DPPH (in words) ([2]; lower concentrations (<100 μg/mL)): did not express any activity
CCCCCc1cc2c3c(c1)OC(C)(C)C1CCC(C)(CC31)O2 (stereo not drawn) [CBT, cannabicitran] | 55.5 (≈ 177 µM) | 0.280 µg/mL and 0.280 ± 0.190 µg/mL | 0.487 ± 0.104 | 0.593 µg/mL and 0.593 ± 0.278 µg/mL | statistically insignificant stimulating effect | reduced the level of this molecule | 0.91 ± 0.16 | 52.23 ± 1.26 | 3.96 ± 0.40 | 52.25 | 42.9 ± 0.96 | 2.90 ± 0.74 | 8.72 ± 1.91 | 1.08 ± 0.56 | 5.02% | 87.3 ± 2.11 | 49.2 | 3.24 | Cells in late apoptosis, more than in the control (CCD 841 CoTr cells [6]): 3.12%
CCCCCc1cc(O)cc(O)c1C/C=C(\C)CCC=C(C)C [abn-CBG, abnormal cannabigerol] | 15.3 (≈ 48.5 µM) | 0.074 ± 0.056 µg/mL | 0.216 ± 0.133 | 0.264 ± 0.198 µg/mL | – | – | 3.65 ± 0.65 | 71.86 ± 2.36 | 19.75 ± 2.50 | 90.42 | 4.74 ± 0.39 | 8.57 ± 1.67 | 18.36 ± 3.62 | 47.55 ± 4.12 | 66.79% | 25.5 ± 1.2 | 68.83 | 19.03 | Reduction of the metabolism of normal cells (MTT) (CCD 841 CoTr cells [1]; CCD 841 CoTr, 25 μg/mL, 24 h): over 81%; Cells in necrosis, more than in the control (CCD 841 CoTr cells [6]): 47.27%; Early and late apoptosis together, dying cells compared to the control (CCD 841 CoTr cells [6]): 19.52%
